Reference: patent US20140142185A1, “3-Benzyloxyphenyloxoacetic Acid Compounds for Reducing Uric Acid” (priority 2011, published 2014)
pIC50: −log10 of the molar value.

Biological target: T1, Human URAT1 (Homo sapiens, UniProt Q96S37)
T1 construct: The full-length hURAT1 cDNA was obtained from the vector pCMV6-XL5 and subcloned into the expression vector pCMV6-Neo
T1 sequence (Q96S37 1-553): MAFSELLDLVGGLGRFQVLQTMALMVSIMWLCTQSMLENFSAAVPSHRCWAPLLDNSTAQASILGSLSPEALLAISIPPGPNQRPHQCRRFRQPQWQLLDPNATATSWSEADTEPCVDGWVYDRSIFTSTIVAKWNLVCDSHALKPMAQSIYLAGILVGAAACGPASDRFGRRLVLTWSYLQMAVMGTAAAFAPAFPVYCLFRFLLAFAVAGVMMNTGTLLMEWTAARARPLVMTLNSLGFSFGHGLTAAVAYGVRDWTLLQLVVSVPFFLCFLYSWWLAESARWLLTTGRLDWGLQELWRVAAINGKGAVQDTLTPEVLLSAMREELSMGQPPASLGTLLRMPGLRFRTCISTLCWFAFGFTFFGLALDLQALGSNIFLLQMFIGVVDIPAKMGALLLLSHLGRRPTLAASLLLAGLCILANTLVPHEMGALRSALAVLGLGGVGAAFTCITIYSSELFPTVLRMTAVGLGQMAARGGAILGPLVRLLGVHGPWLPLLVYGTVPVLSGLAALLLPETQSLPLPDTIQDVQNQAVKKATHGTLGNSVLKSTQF
Experiment: URAT1 inhibition assay: [8-14C] urate uptake in hURAT1-expressing HEK293 cells
Assay type: cell-based
Settings: for inhibition at 10 µM: Human URAT1-Expressing HEK293 cells, 50 μM [8-14C] urate, 5 min, read-out: % Inhibition of uric acid uptake
Method: An in vitro URAT1 assay is useful for identifying compounds with potential activity in lowering serum uric acid. A suitable assay involves transfection of cells (e.g. human embryonic kidney cells; “HEK”) with a vector encoding human URAT1, followed by determination of the ability of transfected cells to take up radiolabeled uric acid. The activity of compounds as URAT1 inhibitors is evaluated by their ability to block uric acid uptake by transfected cells.
Plasmid vector pCMV6-XL5 containing hURAT1 cDNA (Cat. No. SC125624) and the expression vector pCMV6-Neo (Cat. No. pCMVNEO) were obtained from OriGene Technologies, Inc. The full-length hURAT1 cDNA was obtained from the vector pCMV6-XL5 and subcloned into the expression vector pCMV6-Neo to create the hURAT1 expression plasmid pCMV6-hURAT1. The sequences were verified by automatic DNA sequencing.
Human embryonic kidney 293 (HEK) cells (ATTCC, Cat No. CRL-1573) were cultured in EMEM supplemented with 10% FBS and 2 mM L-glutamine and incubated at 37° C. and 5% CO2. For transfection experiments, cells were plated on 60 mm dishes in 1 ml media per dish. After an 18-24 hour incubation, cells were transfected with plasmid pCMV6-hURAT1 or the expression vector pCMV6-Neo, using the Lipofectin trasfection agent following the manufacturer's instructions (Invitrogen, Cat. No. 18292). After transfection cells were grown in EMEM media for 72 hours and then by adding 1 mg/ml Geneticin (GIBCO, Cat. No 10131) stable transfectants were selected. […]
hURAT1-HEK cells and mock-HEK cells were plated in poly-D-Lysine Cell culture 24 well plates (Becton Dickinson, Cat. No. 354414) at a concentration of 3×10^5 in EMEM medium and incubated overnight. […] The cell lysates were transferred into the scintillation vials containing 1 ml of scintillation fluid (Opti Phase SuperMIX, PerkinElmer, Cat No. 1200-439) and the radioactivity was counted in the Microbeta counter (1450, Wallac Jet, PerkinElmer). […] The radioactivity values obtained for the wells that contained DMSO were taken as 100% uptake of the cells. […]

inhibition at 10 µM [%] | pIC50 (uric acid uptake in hURAT1-HEK cells) | Structure (SMILES)
67.1 | – | COc1ccc(C(=O)C(=O)O)cc1OCc1c(C)cccc1C [Cpd. FG, 2-(3-(2,6-dimethylbenzyloxy)-4-methoxyphenyl)-2-oxoacetic acid]
87.4 | 5.89 | Cc1ccc(C(=O)C(=O)O)cc1OCc1c(C)cccc1C [Cpd. FF, 2-(3-(2,6-dimethylbenzyloxy)-4-methylphenyl)-2-oxoacetic acid]
